In patent publication US20240156090A1, “SUSPENSION CONCENTRATE ACYLHYDRAZONE APYRASE INHIBITOR FORMULATION” (Texas Crop Science, priority 2022, published 2024):

Legend:
Assay type in all cases: physicochemical
[1] = Chemical stability as a function of pH in PBS (Example 6); settings: for remaining amount of Compound 1: 5 μM
Procedure: A working solution of Compound 1 was prepared in dimethyl sulfoxide at a concentration of 500 μM. 2 μL of the working solution and 198 μL of PBS pH 4.5 or PBS pH 7.4 were added into glass vials to achieve a final concentration of 5 μM. The setup was performed in duplicate. Vials were incubated at 37° C. at 60 rpm in a water bath and taken at designated time points of 0, 2, 4, 6 and 24 hours. For each time point, the incubations were terminated with 1000 μL cold acetonitrile containing internal analytical reference standards. Samples were vortexed for 1 minute then centrifuged at RT at 2500 g for 10 minutes. Aliquots of 200 μL of the supernatant were used for LC-MS/MS analysis.

[2] = Long term chemical stability of aqueous suspension concentrate as a function of pH, HPLC (Example 7); settings: 30 wt % suspension concentrate
Procedure: Method: An aqueous suspension concentrate was prepared with the following composition: 30 wt % Compound 1, 2.5 wt % tristyrylphenol ethoxylate surfactant, 2.0 wt % ethyleneoxide-propyleneoxide block co-polymeric dispersant, 5.0 wt % propylene glycol freeze protectant, 0.1 wt % silicone oil antifoam, 52.4% distilled water, and after 2 hours of milling were added 8.0 wt % viscosity modifier gel comprising 2.0% xanthan and 1.0% biocide in water. Aliquots of this suspension were taken and adjusted to pH 6, 7 and 8 with respectively 10 wt % sulfuric acid, pH10 borate buffer and 10 wt % sodium hydroxide. The three samples were sub-divided and stored at room temperature (RT, approximately 25° C.) and 38° C. Control samples were stored at 0° C. for reference. Aliquots were withdrawn periodically and diluted in acetonitrile for analysis by HPLC.

[3] = Solubility of Compound 1 in water

remaining amount of Compound 1 ([1]; PBS pH 4.5, 37° C., 0 hr): 100% | remaining amount of Compound 1 ([1]; PBS pH 4.5, 37° C., 2 hr): 62.3% | remaining amount of Compound 1 ([1]; PBS pH 4.5, 37° C., 4 hr): 33.7% | remaining amount of Compound 1 ([1]; PBS pH 4.5, 37° C., 6 hr): 29.2% | remaining amount of Compound 1 ([1]; PBS pH 4.5, 37° C., 24 hr): 3.1% | remaining amount of Compound 1 ([1]; PBS pH 7.4, 37° C., 0 hr): 100% | remaining amount of Compound 1 ([1]; PBS pH 7.4, 37° C., 2 hr): 112.4% | remaining amount of Compound 1 ([1]; PBS pH 7.4, 37° C., 4 hr): 96.2% | remaining amount of Compound 1 ([1]; PBS pH 7.4, 37° C., 6 hr): 97.8% | remaining amount of Compound 1 ([1]; PBS pH 7.4, 37° C., 24 hr): 91.1% | half-life at 5 μM ([1]; mildly acidic conditions (PBS pH 4.5), 37° C., read-out: apparent half-life): > 2 h | estimated half-life of actual degradation in solution ([1]; mildly acidic conditions, corrected for solubility below 5 μM): below one | amount of Compound 1 remaining ([2]; pH 6 sample as printed in the last sentence of b183, 38° C., 1 month): 99% | amount of Compound 1 remaining ([2]; pH 6 sample as printed in the last sentence of b183, 38° C., 9 months): 103% | amount of Compound 1 remaining ([2]; pH 6 sample, 38° C., 1 month): 103% | amount of Compound 1 remaining ([2]; pH 6 sample, 38° C., 9 months): 94% | amount of Compound 1 remaining ([2]; pH 6 sample, RT, 1 month): 99% | amount of Compound 1 remaining ([2]; pH 6 sample, RT, 9 months): 86% | amount of Compound 1 remaining ([2]; pH 7 sample, 38° C., 1 month): 104% | amount of Compound 1 remaining ([2]; pH 7 sample, 38° C., 9 months): 89% | amount of Compound 1 remaining ([2]; pH 7 sample, RT, 1 month): 103% | amount of Compound 1 remaining ([2]; pH 7 sample, RT, 9 months): 76% | amount of Compound 1 remaining ([2]; pH 8 sample, RT, 1 month): 99% | amount of Compound 1 remaining ([2]; pH 8 sample, RT, 9 months): 102% | solubility [3]: < 5 µM
SMILES: C/C(=N\NC(=O)c1cccc(C)c1)c1ccc2ccccc2c1 [Compound 1, (E)-3-methyl-N′-(1-(naphthalen-2-yl)ethylidene)benzohydrazide]
